Data on five molecules can be found in paper PMC4291220 (PLoS ONE, 2015).

The target in data set [1] is T1, CLIC4 (Homo sapiens, UniProt Q9Y696). The experiment in a line: HEDS assay, GR-coupled NADPH oxidation at A340. The format is biochemical. The note with it: 5 uM protein, 1 mM HEDS, 1 mM GSH, pH 7, 37 °C.
In another data set the target is T2, CLIC2 (Homo sapiens, UniProt O15247).
T2 construct: full length, N-terminal GST tag (pGEX-2T) cut with thrombin; E. coli BL21(DE3)
Nature of the data set: HEDS assay, GR-coupled NADPH oxidation at A340. The format is biochemical. The note with it: 5 uM protein, 1 mM HEDS, 1 mM GSH, pH 7, 37 °C.

For data set [2], the target named is T3, CLIC1 (Homo sapiens, UniProt O00299). The note with it: 1 mM GSH, 250 uM NADPH, 50 nM GR, pH 7, 37 °C; reduced monomer; HEDS range printed as 0-6 mM, so printed unit uM is doubtful.
The target of data set [3] is CLIC1 (Homo sapiens, UniProt O00299, C59A). The note with it: 1 mM GSH, 250 uM NADPH, 50 nM GR, pH 7, 37 °C; HEDS range printed as 0-6 mM, so printed unit uM is doubtful.
The target of data set [4] is T3, CLIC1. Nature of the data set: HEDS assay, GR-coupled. Also noted: full length, His-tag (pET28a) cut with thrombin; E. coli BL21(DE3); reduced monomer by SEC. As to conditions: 5 uM CLIC1, 1 mM HEDS, 1 mM GSH, pH 7, 37 °C; mode and site not determined. The class given is biochemical.
Data set [5] addresses T1, CLIC4. The experiment in a line: DHAR assay, GR-coupled NADPH oxidation at A340. The class given is biochemical. The note with it: 5 uM protein, 1 mM DHA, 2 mM GSH, pH 7.5, 30 °C.
The test system of the next data set is O=[Se](O)O. Nature of the data set: purified protein. As to conditions: 50 uM GSH, 200 uM NADPH, 50 nM GR, pH 7.5, 20 °C, reduced monomer, selenite 0-16 uM.

T1 sequence (Q9Y696 2-253): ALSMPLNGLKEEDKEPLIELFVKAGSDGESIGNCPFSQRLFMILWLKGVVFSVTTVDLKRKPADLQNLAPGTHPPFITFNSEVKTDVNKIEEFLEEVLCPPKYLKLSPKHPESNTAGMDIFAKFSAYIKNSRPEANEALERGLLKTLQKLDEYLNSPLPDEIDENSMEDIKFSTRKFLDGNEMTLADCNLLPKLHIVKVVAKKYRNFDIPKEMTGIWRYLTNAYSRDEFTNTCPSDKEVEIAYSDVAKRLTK
T2 sequence (O15247 whole entry): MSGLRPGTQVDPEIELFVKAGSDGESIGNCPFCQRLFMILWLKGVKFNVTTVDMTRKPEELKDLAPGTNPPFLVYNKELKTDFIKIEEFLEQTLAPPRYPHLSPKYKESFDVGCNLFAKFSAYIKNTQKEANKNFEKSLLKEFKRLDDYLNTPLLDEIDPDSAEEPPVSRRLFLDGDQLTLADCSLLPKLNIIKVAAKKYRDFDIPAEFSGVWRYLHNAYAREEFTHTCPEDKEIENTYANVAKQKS

In general, Km refers to the substrate concentration at which the rate is half of its maximum. In the case of `OCCSSCCO` [2-hydroxyethyl disulfide], the “HEDS assay, GR-coupled NADPH oxidation at A340” value at CLIC4 [1] and on CLIC2 was “all three proteins reduced the HEDS substrate when coupled with glutathione (GSH)” throughout. The results for the Km at CLIC1 [2] and on CLIC1 [3] were 1.28 ± 0.65 µM and 1.25 ± 0.65 µM, respectively.
Turning to `O=C(O)c1c2ccccc2cc2ccccc12` [A9C], at CLIC1 [4], the “complete inhibition at 10 uM” value was “both IAA-94 and A9C completely blocked the enzymatic activity of CLIC1”.
Still for that read-out and setting: for `CC1(C2CCCC2)Cc2cc(OCC(=O)O)c(Cl)c(Cl)c2C1=O` (centres unmarked) [IAA-94] the value was “both IAA-94 and A9C completely blocked the enzymatic activity of CLIC1”.
On to `O=C1O[C@H]([C@@H](O)CO)C(=O)C1=O` [dehydroascorbic acid], for which the “DHAR assay, GR-coupled NADPH oxidation at A340” value at CLIC4 [5] is given as “NADPH consumption increased in the presence of CLIC1 or CLIC4”.
On to CLIC1 (Homo sapiens), for which the Km in the data set on O=[Se](O)O came to 4.81 ± 3.00 µM.
